Experimental data: patent publication US20230293560A1, “METHOD FOR MODULATING THE BLADDER MICROBIOME TO IMPROVE BLADDER HEALTH” (Kimberly-Clark Worldwide, Inc., priority 2020, published 2023)

Assays:
E. faecalis = test: Plate assay screening of prebiotics; format: cell-based, Enterococcus faecalis; design: key: ++: if growth and fermentation was equal to or greater than the positive control; +: if growth and fermentation was less than the positive control; +: if weak or no growth or fermentation; +^2: Bacteria demonstrated growth but no fermentation on the prebiotic; settings: E. faecalis KC16-7171-3, Bladder; MRS-based agar with glucose substituted by prebiotic
Protocol: (§1) Most of the prebiotic compounds were initially tested in a high throughput assay screening process, described further in the Test Methods section herein, but three prebiotics (as noted in Table 3) were tested using a plate assay screening process as described in the Test Methods section herein. The prebiotics were tested against the commensal bacterial species of Lactobacillus crispatus, Lactobacillus gasseri, and Lactobacillus jensenii and against the pathogenic bacterial species of Streptococcus anginosus and Enterococcus faecalis as shown in Table 2. The bacterial species were taken from different sources, listed as culture collection, bladder, and vagina. […]
(§2) • 1. […] Bacteria were enumerated on each agar and color changes were recorded. […] Small colonies are counted as S. anginosus and large colonies are counted as L. crispatus. • 10. […]

E. coli = test: Additional prebiotic screening against E. coli (plate assay); format: cell-based, Escherichia coli
Description: Additional screening of three prebiotic compounds of alpha-methyl-D-glucoside, isomaltulose, and alpha cyclodextrin was completed against pathogenic bacteria species Escherichia coli from both bladder and vaginal sources, as shown in Table 4. The growth of the bacterial species for this additional screening process against E. coli was not compared to growth of a control as in the screening process documented in Table 3, but was documented based on growth or no growth for the number of samples tested.
• 1. An in house bacterial agar was created based on MRS agar (Kaplan and Hutkins, 2000) where the glucose is substituted for the prebiotic to be tested (either dextran MW ˜6,000, alpha-cyclodextrin, glucomannan, or pectin), bromocresol purple was included as a pH indicator. • 2. Bacteria were enumerated on each agar and color changes were recorded. Method for Competition Assay (Modified from “In Vitro Evaluation of Nutrients that Selectively Confer a Competitive Advantage to Lactobacilli” Vongsa et al, Beneficial Microbes 2016) • 1. Create 2% w/v stock of prebiotic or positive control (glucose/dextrose) as described above. • 2. From a freezer stock subculture the bacteria twice into De Man, Rogosa and Sharpe (MRS) broth (BD Difco, Becton Dickinson, Franklin Lakes, NJ), 37° C., stationary, anaerobic, overnight. • 3. From the last subculture, plate onto an MRS agar plate for L. crispatus KC18-1173-1 or blood agar for S. anginosus KC18-1131-3B, grow 37° C., stationary, anaerobic, overnight. • 4. Create a bacterial suspension by using a sterile tipped swab to transfer colonies of bacteria into a PBS suspension blank to a 2 MacFarland for both species. • 5. Enumerate the starting culture. • 6. Add 9.8 mL of prebiotic media into a 15 mL conical tube. • 7. Add 100 μL of the diluted bacteria to the media, incubate at 37° C., anaerobic, 48 hours. • 8. Harvest 100 μL from the tube containing the prebiotic and plate onto MRS agar and tryptic soy agar (TSA). • 9. […] Small colonies are counted as S. anginosus and large colonies are counted as L. crispatus. • 10. […]

L. jensenii = test: Plate assay screening of prebiotics; format: cell-based, Lactobacillus jensenii; design: key: ++: if growth and fermentation was equal to or greater than the positive control; +: if growth and fermentation was less than the positive control; +: if weak or no growth or fermentation; +^2: Bacteria demonstrated growth but no fermentation on the prebiotic; settings: L. jensenii KC17-4297-18, Bladder; MRS-based agar with glucose substituted by prebiotic
Protocol: as §1, §2

[1] = test system: commensal and pathogenic bacterial species; test: Prebiotic screening, summary in words across species; format: cell-based; settings: commensal (L. crispatus, L. gasseri, L. jensenii) and pathogenic (S. anginosus, E. faecalis) species
Summary of the method: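 Prebiotics at 2% w/v stock in API 50 CHL medium with bromocresol purple, inoculated with bacteria and read every 20 min for 24-48 h at OD430/590 (fermentation) and OD660 (growth), scored against a glucose control. Some tested on MRS-based agar with the prebiotic in place of glucose; competition assay with L. crispatus and S. anginosus incubated 48 h anaerobically at 37 °C, then enumerated on MRS and TSA.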

L. crispatus = test: Plate assay screening of prebiotics; format: cell-based, Lactobacillus crispatus; design: key: ++: if growth and fermentation was equal to or greater than the positive control; +: if growth and fermentation was less than the positive control; +: if weak or no growth or fermentation; +^2: Bacteria demonstrated growth but no fermentation on the prebiotic; settings: MRS-based agar with glucose substituted by prebiotic
Protocol: as §1, §2

S. anginosus = test: Plate assay screening of prebiotics; format: cell-based, Streptococcus anginosus; design: key: ++: if growth and fermentation was equal to or greater than the positive control; +: if growth and fermentation was less than the positive control; +: if weak or no growth or fermentation; +^2: Bacteria demonstrated growth but no fermentation on the prebiotic; settings: S. anginosus KC18-1131-3B, Bladder; MRS-based agar with glucose substituted by prebiotic
Protocol: as §1, §2

[2] = E. coli KC17-3970-4, Vagina, of 1 tested

`OC[C@H]1O[C@@H]2O[C@H]3[C@H](O)[C@@H](O)[C@@H](O[C@H]4[C@H](O)[C@@H](O)[C@@H](O[C@H]5[C@H](O)[C@@H](O)[C@@H](O[C@H]6[C@H](O)[C@@H](O)[C@@H](O[C@H]7[C@H](O)[C@@H](O)[C@@H](O[C@H]1[C@H](O)[C@H]2O)O[C@@H]7CO)O[C@@H]6CO)O[C@@H]5CO)O[C@@H]4CO)O[C@@H]3CO` [Alpha Cyclodextrin, Alpha-Cyclodextrin] was tested, and the “growth and fermentation vs positive control, Ef-2 (plate assay)” value (E. faecalis) was “+”, the “# fermented, Ec-3 (plate assay)” value (E. coli; [2]) was 0 and the “# grew, Ec-3 (plate assay)” value (E. coli; [2]) was 1. For the same compound, the “growth of E. coli Ec-3, in words” value (E. coli; the one E. coli species tested (Ec-3), vaginal source) was “did grow”, the “growth and fermentation vs positive control, Lj-1 (plate assay)” value (L. jensenii) was “+” and the “overall outcome of the screening of Table 3, in words” value [1] was “growing at least some of the commensal bacterial species and either having less growth than the positive control or almost no growth of the pathogenic bacterial species”. For the same compound, the “growth and fermentation vs positive control, Lc-2 (plate assay)” value (L. crispatus; L. crispatus KC16-7134-3C, Bladder) was “+”, the “growth and fermentation vs positive control, Lc-3 (plate assay)” value (L. crispatus; L. crispatus KC18-1173-1, Bladder) was “+^2” and the “growth and fermentation vs positive control, Sa-2 (plate assay)” value (S. anginosus) was “+”.
